Measurements from ChEMBL document CHEMBL1130970, “Design and synthesis of a water-soluble taxol analogue: taxol-sialyl conjugate” (Bioorg Med Chem Lett, 1998).
Converted amounts (≈) assume the structure as drawn.

How the values were obtained:
Sus scrofa = organism: Sus scrofa; assay: Concentration that induces microtubule assembly (tubulin obtained from porcine brain) by 50% in the absence of GTP; format: functional
A-427 [1] = assay: Inhibitory concentration in human lung carcinoma A427 cell line; format: functional, cell-based
A-427 [2] = assay: Inhibitory concentration in human lung carcinoma A427/VCR cell line; format: functional, cell-based
[3] = Solubility was determined; format: physicochemical

Structure (SMILES) | ED50 (Sus scrofa) | IC50 (A-427 [1]) | IC50 (A-427 [2]) | solubility [3]
CC(=O)O[C@H]1C(=O)[C@@]2(C)[C@H]([C@H](OC(=O)c3ccccc3)[C@]3(O)C[C@H](OC(=O)[C@H](O)[C@@H](NC(=O)c4ccccc4)c4ccccc4)C(C)=C1C3(C)C)[C@]1(OC(C)=O)CO[C@@H]1C[C@@H]2O [PACLITAXEL] | 860 nM |  |  | 
CC(=O)NC1C(O)CC(OCCOCCOCCNC(=O)O[C@H]2C[C@H]3OC[C@@]3(OC(C)=O)C3[C@H](OC(=O)c4ccccc4)[C@]4(O)C[C@H](OC(=O)[C@H](O)[C@@H](NC(=O)c5ccccc5)c5ccccc5)C(C)=C([C@@H](OC(C)=O)C(=O)[C@@]32C)C4(C)C)(C(=O)O)OC1[C@H](O)[C@@H](O)CO (stereo not given in full) | 3860 nM | 100 nM | 1000 nM | 28 mg/mL (≈ 21.2 mM)
